Results on 15 compounds are retold here after US9334280B2, “Synthetic rigidin analogues as anticancer agents, salts, solvates and prodrugs thereof, and method of producing same” (New Mexico Technical Research Foundation, priority 2012, dated 2016).

Read-outs that look alike come from different tables or passages of the source.

In general, GI50 refers to the concentration that inhibits growth by half.

Test [1] relates to HeLa cervical adenocarcinoma cells. The experiment in a line: MTT antiproliferative assay, HeLa. In kind it is cell-based. As to conditions: Homo sapiens. How it is done:
(§1) Human T-cell leukemia cell line Jurkat (ATCC TIB-152, E6-1 clone) was cultured in RPMI-1640 (Invitrogen) supplemented with 10% FBS (Invitrogen), 100 mg/L penicillin G, 100 mg/L streptomycin, 1.0 mM sodium pyruvate, 1.5 g/L sodium bicarbonate, and 4.5 g/L glucose (all from Sigma). Human cervical cancer cell line HeLa (ATCC S3) was cultured in DMEM (Invitrogen) supplemented with 10% FBS, 100 mg/L penicillin G, and 100 mg/L streptomycin. MCF-7 (human mammary carcinoma) cells were cultured in DMEM supplemented with 1.0 mM sodium pyruvate, 1% GlutaMax™-1 (Invitrogen), 100 μg/mL penicillin, 100 μg/mL streptomycin, and 10% FBS. Human uterine sarcoma MES-SA and MES-SA/Dx5 cells were cultured in RPMI-1640 medium supplemented with 10% FBS, 100 mg/L penicillin G and 100 mg/L streptomycin. All cells were incubated at 37° C. in a humidified atmosphere with 5% CO2. The other cell lines were maintained in a similar fashion as previously described.
(§2) To evaluate antiproliferative properties of the compounds of Formula I, mitochondrial dehydrogenase activities were measured using the MTT assay. The cell lines were prepared by trypsinizing and seeding […] cells per well into microplates. All compounds were reconstituted in dimethyl sulfoxide (DMSO) at a concentration of either 100 mM or 25 mM prior to treatment. The cells were grown for 24 hrs before treatment at concentrations ranging from 0.004 to 100 microM and incubated for 48 hrs in 200 microL media. 20 microL of MTT reagent in serum free medium (5 mg/mL) was added to each well and incubated further for 2 hrs. Media was removed and the resulting formazan crystals were re-solubilized in 100 microL of DMSO and the optical density (OD) was measured using a Thermomax Molecular Device plate reader at a wavelength of 490 nm. The experiments were performed in quadruplicate and repeated at least twice for each compound per cell line. Cells treated with 0.1% DMSO were used as a negative control, while phenyl arsine oxide (PAO) was used as a positive killing control.
(§3) Human cancer cell lines were obtained from the American Type Culture Collection (ATCC, Manassas, Va., USA), the European Collection of Cell Culture (ECACC, Salisbury, UK) and the Deutsche Sammlung von Mikroorganismen and Zellkulturen (DSMZ, Braunschweig, Germany). Human cervical adenocarcinoma HeLa cells were cultured in DMEM supplemented with 10% fetal bovine serum (FBS). Human mammary carcinoma MCF-7 cells were cultured in RPMI supplemented with 10% FBS. The U87 and U373 cells were cultured in DMEM culture medium (Lonza code 12-136F, Vervier, Belgium), while the SKMEL-28 and A549 cells were cultured in RPMI culture medium (Lonza; code 12-115F) supplemented with 10% heat-inactivated FBS (Lonza, FBS South America code DE14-801F). […] All cell lines were cultured in T25 flasks, maintained and grown at 37° C., 95% humidity, 5% CO2.
(§4) To evaluate antiproliferative properties of the synthesized compounds, the MTT assay was used. The cell lines were assessed by trypsinizing each cell line and seeding 4×10^3 cells per well into 96-well plates. All compounds were dissolved in DMSO at a concentration of either 100 mM or 50 mM prior to cell treatment. The cells were grown for 24 h and then treated with compounds at concentrations ranging from 0.04 to 100 μM and incubated for 48 h in 200 μL media. 20 μL of MTT reagent in serum free medium (5 mg/mL) was added to each well and incubated further for 2 h. Media was removed, and the resulting formazan crystals were re-solubilized in 200 μL of DMSO. A490 was measured using a Thermomax Molecular Device plate reader. The experiments were performed in quadruplicate and repeated at least twice for each compound per cell line. Cells treated with 0.1% DMSO were used as a control, and 1 μM phenyl arsine oxide (PAO) was used as a positive killing control.
(Formazan colour is commonly taken as a measure of viable cells.)

Test [2] relates to MCF-7 mammary gland adenocarcinoma cells. The experiment in a line: MTT antiproliferative assay, MCF-7. In kind it is cell-based. The settings on record: Homo sapiens. How it is done: as §1, §2, §3, §4
Where [3] appears, read: Table 5, 48 h, MTT, ± SD, read-out: cell viability GI50, HeLa.
Where [4] appears, read: MCF7, Table 5, 48 h, MTT, ± SD, read-out: cell viability GI50, MCF-7.
Setting [5] is: Table 1, 48 h treatment, MTT, ± SD, read-out: GI50 in vitro Values, HeLa.
The mark [6] stands for this setting: MCF7, Table 1, 48 h treatment, MTT, ± SD, read-out: GI50 in vitro Values, MCF-7.

Regarding `CCc1nc(=O)c2c(-c3ccccc3)c(C(=O)c3ccccc3)[nH]c2[nH]1` [Compound 12], the GI50 was 920 ± 110 nM in test [1] (setting [3]) and 1100 ± 100 nM in test [2] (setting [4]).
Consider `O=C(c1ccccc1)c1[nH]c2[nH]cnc(=O)c2c1-c1cccc(Br)c1` [Rig33, 6-Benzoyl-5-(3-bromophenyl)-1H-pyrrolo[2,3-d]pyrimidin-4(7H)-one], for which the GI50 in test [1] (setting [5]) amounted to 130 ± 50 nM; in test [2] (setting [6]), 60 ± 20 nM.
Take `COc1cc(-c2c(C(=O)c3ccccc3)[nH]c3[nH]cnc(=O)c23)cc(Br)c1OC` [Rig32, 6-Benzoyl-5-(3-bromo-4,5-dimethoxyphenyl)-1H-pyrrolo[2,3-d]pyrimidin-4(7H)-one]: the GI50 came to 7000 ± 1000 nM in test [1] (setting [5]) and 10000 ± 5000 nM in test [2] (setting [6]).
With `CCOC(=O)CCc1nc(=O)c2c(-c3ccccc3)c(C(=O)c3ccccc3)[nH]c2[nH]1` [Compound 10, 6-Benzoyl-2-(2-ethoxycarbonylethyl)-5-phenyl-1H-pyrrolo[2,3-d]pyrimidin-4(7H)-one], the GI50 in test [1] (setting [3]) was 780 ± 50 nM; in test [2] (setting [4]), 930 ± 70 nM.
As to `COc1cc(-c2c(C(=O)c3ccccc3)[nH]c3[nH]cnc(=O)c23)cc(I)c1OC` [Rig31, 6-Benzoyl-5-(3-iodo-4,5-dimethoxyphenyl)-1H-pyrrolo[2,3-d]pyrimidin-4(7H)-one], the GI50 in test [1] (setting [5]) is 8000 ± 1000 nM; in test [2] (setting [6]), 40000 ± 4000 nM.
As for `O=C(c1ccccc1)c1[nH]c2[nH]c(C(F)(F)F)nc(=O)c2c1-c1ccccc1` [Compound 16, 6-Benzoyl-5-phenyl-2-(trifluoromethyl)-1H-pyrrolo[2,3-d]pyrimidin-4(7H)-one], the GI50 in test [1] (setting [3]) was 21500 ± 400 nM; in test [2] (setting [4]), 21100 ± 1100 nM.
As for `O=C(c1ccccc1)c1[nH]c2[nH]cnc(=O)c2c1-c1c(Cl)cccc1Cl` [Rig40, 6-Benzoyl-5-(2,6-dichlorophenyl)-1H-pyrrolo[2,3-d]pyrimidin-4(7H)-one], the GI50 came to 4880 ± 70 nM in test [1] (setting [5]) and 2200 ± 300 nM in test [2] (setting [6]).
For `O=C(c1ccccc1)c1[nH]c2[nH]cnc(=O)c2c1-c1cccnc1` [Rig41, 6-Benzoyl-5-(pyridin-3-yl)-1H-pyrrolo[2,3-d]pyrimidin-4(7H)-one], the values for the GI50 in test [1] (setting [5]) and in test [2] (setting [6]) were 888 ± 61 nM and 1260 ± 180 nM, respectively.
Regarding `COc1ccc(C(=O)c2[nH]c3[nH]cnc(=O)c3c2-c2cc(OC)c(OC)c(OC)c2)cc1` [Rig19, 6-(4-Methoxybenzoyl)-5-(3,4,5-trimethoxyphenyl)-1H-pyrrolo[2,3-d]pyrimidin-4(7H)-one], the GI50 is above 100000 nM in test [1] (48 h, read-out: GI50 in vitro Values, HeLa) and 7000 ± 1000 nM in test [2] (MCF7, 48 h, read-out: GI50 in vitro Values, MCF-7).
Turning to `O=C(c1ccccc1)c1[nH]c2[nH]c(C(F)F)nc(=O)c2c1-c1ccccc1` [Compound 15, 6-Benzoyl-2-(difluoromethyl)-5-phenyl-1H-pyrrolo[2,3-d]pyrimidin-4(7H)-one], the GI50 turned out to be 5100 ± 200 nM in test [1] (setting [3]) and 4200 ± 500 nM in test [2] (setting [4]).
For `O=C(c1ccc(OCc2ccccc2)cc1)c1[nH]c2[nH]cnc(=O)c2c1-c1cc(Br)cc(Br)c1` [Rig11, 6-(4-(Benzyloxy)benzoyl)-5-(3,5-dibromophenyl)-1H-pyrrolo[2,3-d]pyrimidin-4(7H)-one], the figures for the GI50 in test [1] (setting [5]) and in test [2] (setting [6]) were 400 ± 10 nM and 310 ± 10 nM, respectively.
For `O=C(c1ccccc1)c1[nH]c2[nH]cnc(=O)c2c1-c1cccc(I)c1` [Rig36, 6-Benzoyl-5-(3-iodophenyl)-1H-pyrrolo[2,3-d]pyrimidin-4(7H)-one], in that order: 200 ± 100 nM and 150 ± 60 nM.
Consider `O=C(c1ccccc1)c1[nH]c2[nH]c(=O)[nH]c(=O)c2c1-c1ccccc1` [Compound 2], for which the GI50 in test [1] (setting [3]) and in test [2] (setting [4]) was above 50000 nM each time.
In the case of `O=C(c1ccccc1)c1[nH]c2[nH]c(CF)nc(=O)c2c1-c1ccccc1` [Compound 14], the GI50 in test [1] (setting [3]) came out at 3000 ± 200 nM; in test [2] (setting [4]) it was 3200 ± 200 nM.
As for `O=C(c1ccc(Br)cc1)c1[nH]c2[nH]cnc(=O)c2c1-c1cc(Br)cc(Br)c1` [Rig14, 6-(4-Bromobenzoyl)-5-(3,5-dibromophenyl)-1H-pyrrolo[2,3-d]pyrimidin-4(7H)-one], the concentration for 50% growth inhibition (GI50) in test [1] (setting [5]) amounted to 2000 ± 1000 nM; in test [2] (setting [6]), 600 ± 100 nM.
